Test results published in patent publication US4017540A, “Method of use, composition, and compounds” (The Upjohn Company, priority 1972, dated 1977).
Entries after “also recorded” stand apart in the source; their conditions may differ.

Assays:
Conditions in all cases: in vivo
insects and mites = assay: insecticidal and miticidal activity (general)
anorexigenic activity = assay: anorexigenic activity
parasitic worms = assay: anthelmintic activity (general; sheep)

## O=[N+]([O-])c1ccc(NN=C(Cl)c2ccccc2)c([N+](=O)[O-])c1 [Benzoyl chloride (2,4-dinitrophenyl)hydrazone, reference compound]
Insects and mites
  insecticidal and miticidal activity: relatively inactive

## ClC(=NNc1cc(Cl)ccc1Cl)c1ccccc1 [benzoyl chloride (2,5-dichlorophenyl)hydrazone]
Anorexigenic activity
  anorexigenic activity: have anorexigenic activity

## ClC(=NNc1ccccc1)c1ccccc1 [benzoyl chloride phenylhydrazone]
Parasitic worms
  anthelmintic activity: effective against worms; also recorded: efficacious anthelmintic agents
